System: 439559-082-T-J2-PDC spheroids viability
Assay: Anticancer human tumor 439559-082-T-J2-PDC patient-derived colon adenocarcinoma cell line growth inhibition [GQUAD]
Details: for IC50: curve of first compound; for viability, T/C: stronger effect = lower value
Description: DNA G-quadruplex Stabilizer Agents in Combinations in Complex Spheroids
A high-throughput screen of multi-cell type tumor spheroids was designed to identify active combinations of DNA G-quadruplex stabilizer agents and targeted small molecules. Complex spheroids include a stromal component modeled by human endothelial cells (HUVEC) and fibroblasts modeled by human mesenchymal stem cells (MSCs). The concentration ranges selected for each drug and investigational agent were based upon clinically achievable concentrations if the clinical Cmax of the agent was known.
Compounds. The drugs and investigational agents: pidnarulex (CX-5461; NSC782164), APTO-253 (NSC789042), BRACO-19 (NSC847499), peposertib (NSC802822), ceralasertib (NSC780249), elimusertib (NSC800525), camonsertib (NSC841442), AZD-1390 (NSC803789), olaparib (NSC753686), talazoparib (NSC767125), ART-558 (NSC835418), sotorasib (NSC818433), MRTX-1133 (NSC836407), SN-38 (NSC673596), topotecan (NSC609699), etoposide (NSC141540), doxorubicin (NSC123127), gemcitabine (NSC613327), 5-fluorouracil (NSC19893), paclitaxel (NSC125973), vemurafenib (NSC761431), panobinostat (NSC761190), R-306465 (JNJ-16241199; NSC773264), adavosertib (NSC754352), TP-3654 (NSC805149), carboplatin (NSC241240), KSQ-4279 (NSC840948), and staurosporine (NSC755774) were obtained from the National Cancer Institute (NCI) Developmental Therapeutics Program Chemical Repository (34). The FDA-approved anticancer drug set is available from the NCI Developmental Therapeutics Program. […] The stock solutions were prepared in dimethyl sulfoxide (DMSO, Sigma-Aldrich, St. Louis, MO, cat. D2650) at 800-fold the tested concentration and stored at -70 degrees C prior to their use. All drugs and investigational agents were tested over a range starting from a high concentration at or near the clinical Cmax and decreasing in half-log increments. If the clinical Cmax for an agent had not been determined, the highest concentration tested was 10 microM.
2.3 Cell Culture. All cells were maintained in an incubator at 37 degrees C and 5% CO2 with 95% humidity. The PDC lines were cultured according to standard operating procedures established by the NCI PDMR. All PDCs were thawed and cultured in Matrigel-coated flasks prepared with a working solution of 1X Ham's F-12 nutrient mix, without supplementation (Invitrogen, cat. 11765054), 100 U/mL penicillin-streptomycin (Invitrogen, cat. 15140122), and 2.5% Matrigel (Corning Inc., cat. 354248) for the first three passages. The 857933-349-R-J2-PDC line was cultured in 6C/Colon 1B media, which includes advanced DMEM/F-12 (Thermo Fisher Scientific, cat. 12634028), 10 mM HEPES (Thermo Fisher Scientific, cat. 15630080), 1X GlutaMAX supplement (Thermo Fisher Scientific, cat. 35050061), 0.1 mg/mL primocin (InvivoGen, cat. ant-pm-2), 10% defined fetal bovine serum, heat inactivated (HyClone Laboratories Inc., cat. SH30070.03HI), 50% L-WRN conditioned media (ATCC, cat. CRL-3276), 1.25 mM N-Acetyl-L-cysteine (Sigma-Aldrich, cat. A9165), 10 mM nicotinamide (Sigma-Aldrich, cat. N0636), 1X B-27 supplement (Thermo Fisher Scientific, cat. 17504044), 1X N-2 supplement (Thermo Fisher Scientific, cat. 17502048), 10 microM Y-27632 dihydrochloride (Tocris Bioscience, cat. 1254), and 50 ng/mL human EGF recombinant protein (Thermo Fisher Scientific, cat. PHG0311). The 485176-168-R4-J1-PDC line was cultured in Panc media, which includes all 6C/Colon 1B media components plus 100 ng/mL human FGF-10 (Thermo Fisher Scientific, cat. 100-26), 500 nM SB-431542 (Selleckchem, cat. S1067), and gastrin (Tocris, cat. 3006).
[…]

[1] = second compound 0.0316 µM, first compound 0.0316 µM
[2] = second compound 0.0316 µM, first compound 0.1 µM
[3] = second compound 0.0316 µM, first compound 0.316 µM
[4] = second compound 0.0316 µM, first compound 1 µM
[5] = second compound 0.0316 µM, first compound 3.16 µM
[6] = second compound 0.0316 µM, first compound 10 µM
[7] = second compound 0.1 µM, first compound 0.0316 µM
[8] = second compound 0.1 µM, first compound 0.1 µM
[9] = second compound 0.1 µM, first compound 0.316 µM
[10] = second compound 0.1 µM, first compound 1 µM
[11] = second compound 0.1 µM, first compound 3.16 µM
[12] = second compound 0.1 µM, first compound 10 µM
[13] = second compound 0.316 µM, first compound 0.0316 µM
[14] = second compound 0.316 µM, first compound 0.1 µM
[15] = second compound 0.316 µM, first compound 0.316 µM
[16] = second compound 0.316 µM, first compound 1 µM
[17] = second compound 0.316 µM, first compound 3.16 µM
[18] = second compound 0.316 µM, first compound 10 µM
[19] = second compound 1 µM, first compound 0.0316 µM
[20] = second compound 1 µM, first compound 0.1 µM
[21] = second compound 1 µM, first compound 0.316 µM
[22] = second compound 1 µM, first compound 1 µM
[23] = second compound 1 µM, first compound 3.16 µM
[24] = second compound 1 µM, first compound 10 µM
[25] = second compound 3.16 µM, first compound 0.0316 µM
[26] = second compound 3.16 µM, first compound 0.1 µM
[27] = second compound 3.16 µM, first compound 0.316 µM
[28] = second compound 3.16 µM, first compound 1 µM
[29] = second compound 3.16 µM, first compound 3.16 µM
[30] = second compound 3.16 µM, first compound 10 µM
[31] = second compound 10 µM, first compound 0.0316 µM
[32] = second compound 10 µM, first compound 0.1 µM
[33] = second compound 10 µM, first compound 0.316 µM
[34] = second compound 10 µM, first compound 1 µM
[35] = second compound 10 µM, first compound 3.16 µM
[36] = second compound 10 µM, first compound 10 µM
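Further: spheroids exposed to the agents for 7 days before readout.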
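Wherever viability, T/C is given: percent of luminescence signal in DMSO vehicle wells taken as 100% viability.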

CC(C)(O)C1CCC(Nc2ccc3ncc(-c4cccc(C(F)(F)F)c4)n3n2)CC1 (stereo unspecified) + Cc1[nH]c2ccc(F)cc2c1-c1nc2c3cccnc3c3ncccc3c2[nH]1
IC50 (second compound 0.0316 µM): > 10 µM
IC50 (second compound 0.1 µM): 7.93 µM
IC50 (second compound 0.316 µM): > 10 µM
IC50 (second compound 1 µM): 6.31 µM
IC50 (second compound 3.16 µM): 3.21 µM
IC50 (second compound 10 µM): 1.23 µM
viability, T/C [1]: 99.4%
viability, T/C [2]: 85.6%
viability, T/C [3]: 70.6%
viability, T/C [4]: 66%
viability, T/C [5]: 58.8%
viability, T/C [6]: 48.6%
viability, T/C [7]: 102%
viability, T/C [8]: 78%
viability, T/C [9]: 77.9%
viability, T/C [10]: 58.8%
viability, T/C [11]: 66.2%
viability, T/C [12]: 42.9%
viability, T/C [13]: 86.3%
viability, T/C [14]: 76.6%
viability, T/C [15]: 62.4%
viability, T/C [16]: 61.9%
viability, T/C [17]: 53.6%
viability, T/C [18]: 50.1%
viability, T/C [19]: 87.1%
viability, T/C [20]: 69.1%
viability, T/C [21]: 76.4%
viability, T/C [22]: 66.3%
viability, T/C [23]: 61.4%
viability, T/C [24]: 42.5%
viability, T/C [25]: 77.8%
viability, T/C [26]: 73%
viability, T/C [27]: 62.3%
viability, T/C [28]: 51.3%
viability, T/C [29]: 57.7%
viability, T/C [30]: 41.1%
viability, T/C [31]: 75.8%
viability, T/C [32]: 73%
viability, T/C [33]: 63.4%
viability, T/C [34]: 50.6%
viability, T/C [35]: 44.5%
viability, T/C [36]: 38.2%

CCCS(=O)(=O)Nc1ccc(F)c(C(=O)c2c[nH]c3ncc(-c4ccc(Cl)cc4)cc23)c1F + Cc1[nH]c2ccc(F)cc2c1-c1nc2c3cccnc3c3ncccc3c2[nH]1
IC50 (second compound 0.0316 µM): 2.75 µM
IC50 (second compound 0.1 µM): 2.64 µM
IC50 (second compound 0.316 µM): 3.1 µM
IC50 (second compound 1 µM): 3.13 µM
IC50 (second compound 3.16 µM): 2.04 µM
IC50 (second compound 10 µM): 2.61 µM
viability, T/C [1]: 108%
viability, T/C [2]: 96.2%
viability, T/C [3]: 103%
viability, T/C [4]: 78.5%
viability, T/C [5]: 46.5%
viability, T/C [6]: 21.1%
viability, T/C [7]: 104%
viability, T/C [8]: 94.5%
viability, T/C [9]: 95%
viability, T/C [10]: 83.8%
viability, T/C [11]: 43.5%
viability, T/C [12]: 22.7%
viability, T/C [13]: 105%
viability, T/C [14]: 100%
viability, T/C [15]: 89.8%
viability, T/C [16]: 80.2%
viability, T/C [17]: 47.6%
viability, T/C [18]: 23%
viability, T/C [19]: 108%
viability, T/C [20]: 97.3%
viability, T/C [21]: 90.4%
viability, T/C [22]: 75.1%
viability, T/C [23]: 48.6%
viability, T/C [24]: 20.8%
viability, T/C [25]: 78.7%
viability, T/C [26]: 86%
viability, T/C [27]: 79.5%
viability, T/C [28]: 65.2%
viability, T/C [29]: 40.5%
viability, T/C [30]: 16.2%
viability, T/C [31]: 81.2%
viability, T/C [32]: 67.6%
viability, T/C [33]: 71.5%
viability, T/C [34]: 67.6%
viability, T/C [35]: 46.1%
viability, T/C [36]: 13.5%

CC1COCCN1c1cc(C2(S(C)(=N)=O)CC2)nc(-c2ccnc3[nH]ccc23)n1 (stereo unspecified) + Cc1cnc(CNC(=O)c2c(=O)c3ccc(N4CCCN(C)CC4)nc3n3c2sc2ccccc23)cn1
IC50 (second compound 0.0316 µM): > 10 µM
IC50 (second compound 0.1 µM): > 10 µM
IC50 (second compound 0.316 µM): > 10 µM
IC50 (second compound 1 µM): > 10 µM
IC50 (second compound 3.16 µM): > 10 µM
IC50 (second compound 10 µM): > 10 µM
viability, T/C [1]: 99.5%
viability, T/C [2]: 86.3%
viability, T/C [3]: 93.8%
viability, T/C [4]: 89.6%
viability, T/C [5]: 90.9%
viability, T/C [6]: 69.9%
viability, T/C [7]: 100%
viability, T/C [8]: 94.4%
viability, T/C [9]: 86.4%
viability, T/C [10]: 85.5%
viability, T/C [11]: 86.5%
viability, T/C [12]: 61.8%
viability, T/C [13]: 80.3%
viability, T/C [14]: 78.3%
viability, T/C [15]: 80.8%
viability, T/C [16]: 81.5%
viability, T/C [17]: 79.1%
viability, T/C [18]: 60.9%
viability, T/C [19]: 76.1%
viability, T/C [20]: 65.2%
viability, T/C [21]: 78.2%
viability, T/C [22]: 75.5%
viability, T/C [23]: 75.8%
viability, T/C [24]: 65.6%
viability, T/C [25]: 62%
viability, T/C [26]: 74.5%
viability, T/C [27]: 66.4%
viability, T/C [28]: 71.3%
viability, T/C [29]: 75.3%
viability, T/C [30]: 55.7%
viability, T/C [31]: 61.3%
viability, T/C [32]: 59.1%
viability, T/C [33]: 66.8%
viability, T/C [34]: 60.8%
viability, T/C [35]: 61.6%
viability, T/C [36]: 49.2%
